Experimental data from PubChem BioAssay (NCI).
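96-well plates; 48 h exposure; 5 concentrations. Endpoints by linear interpolation between flanking doses. Not reached: highest tested concentration assigned. TGI: total growth inhibition.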

How the values were obtained:
Assay in all cases: NCI anticancer screen, dose series, 48 h
ACHN renal = tested on: ACHN renal
TK-10 renal = tested on: TK-10 renal
SF-539 CNS = tested on: SF-539 CNS
A498 renal = tested on: A498 renal
CCRF-CEM leukemia = tested on: CCRF-CEM leukemia
IGROV1 ovarian = tested on: IGROV1 ovarian
HOP-92 NSCLC = tested on: HOP-92 NSCLC
MALME-3M melanoma = tested on: MALME-3M melanoma
SW-620 colon = tested on: SW-620 colon
DU-145 prostate = tested on: DU-145 prostate
SNB-19 CNS = tested on: SNB-19 CNS
HCT-15 colon = tested on: HCT-15 colon
MCF7 breast = tested on: MCF7 breast
MDA-N = tested on: MDA-N
U251 CNS = tested on: U251 CNS
RPMI-8226 leukemia = tested on: RPMI-8226 leukemia
BT-549 breast = tested on: BT-549 breast
HOP-62 NSCLC = tested on: HOP-62 NSCLC
NCI/ADR-RES ovarian = tested on: NCI/ADR-RES ovarian
UACC-257 melanoma = tested on: UACC-257 melanoma
CAKI-1 renal = tested on: CAKI-1 renal
A549 NSCLC = tested on: A549 NSCLC
UACC-62 melanoma = tested on: UACC-62 melanoma
OVCAR-5 ovarian = tested on: OVCAR-5 ovarian
M14 melanoma = tested on: M14 melanoma
EKVX NSCLC = tested on: EKVX NSCLC
KM12 colon = tested on: KM12 colon
PC-3 prostate = tested on: PC-3 prostate
786-0 renal = tested on: 786-0 renal
SF-295 CNS = tested on: SF-295 CNS
SF-268 CNS = tested on: SF-268 CNS
K-562 leukemia = tested on: K-562 leukemia
COLO 205 colon = tested on: COLO 205 colon
HT29 colon = tested on: HT29 colon
HCC-2998 colon = tested on: HCC-2998 colon
MDA-MB-231 breast = tested on: MDA-MB-231 breast
NCI-H522 lung = tested on: NCI-H522 lung
MOLT-4 leukemia = tested on: MOLT-4 leukemia
SR leukemia = tested on: SR leukemia
HCT-116 colon = tested on: HCT-116 colon
SN12C renal = tested on: SN12C renal
OVCAR-3 ovarian = tested on: OVCAR-3 ovarian
NCI-H23 lung = tested on: NCI-H23 lung
NCI-H226 lung = tested on: NCI-H226 lung
SK-MEL-2 melanoma = tested on: SK-MEL-2 melanoma
OVCAR-8 ovarian = tested on: OVCAR-8 ovarian
SK-OV-3 ovarian = tested on: SK-OV-3 ovarian
T-47D breast = tested on: T-47D breast
UO-31 renal = tested on: UO-31 renal
LOX IMVI melanoma = tested on: LOX IMVI melanoma
SK-MEL-5 melanoma = tested on: SK-MEL-5 melanoma
MDA-MB-435 = tested on: MDA-MB-435
RXF 393 renal = tested on: RXF 393 renal
OVCAR-4 ovarian = tested on: OVCAR-4 ovarian
NCI-H460 lung = tested on: NCI-H460 lung
SNB-75 CNS = tested on: SNB-75 CNS
SK-MEL-28 melanoma = tested on: SK-MEL-28 melanoma
HL-60(TB) leukemia = tested on: HL-60(TB) leukemia
HS 578T breast = tested on: HS 578T breast

## O=C(CN1CCOCC1)Nc1ccc2c(c1)C1Oc3ccccc3CC1CO2 (stereo not drawn)
ACHN renal
  TGI: > 100 µM
TK-10 renal
  TGI: > 100 µM
SF-539 CNS
  TGI: > 100 µM
A498 renal
  TGI: > 100 µM
CCRF-CEM leukemia
  TGI: > 100 µM
IGROV1 ovarian
  TGI: > 100 µM
HOP-92 NSCLC
  TGI: > 100 µM
MALME-3M melanoma
  TGI: > 100 µM
SW-620 colon
  TGI: > 100 µM
DU-145 prostate
  TGI: > 100 µM
SNB-19 CNS
  TGI: > 100 µM
HCT-15 colon
  TGI: > 100 µM
MCF7 breast
  TGI: > 100 µM
MDA-N
  TGI: > 100 µM
U251 CNS
  TGI: > 100 µM
RPMI-8226 leukemia
  TGI: > 100 µM
BT-549 breast
  TGI: > 100 µM
HOP-62 NSCLC
  TGI: > 100 µM
NCI/ADR-RES ovarian
  TGI: > 100 µM
UACC-257 melanoma
  TGI: > 100 µM
CAKI-1 renal
  TGI: > 100 µM
A549 NSCLC
  TGI: > 100 µM
UACC-62 melanoma
  TGI: > 100 µM
OVCAR-5 ovarian
  TGI: > 100 µM
M14 melanoma
  TGI: > 100 µM
EKVX NSCLC
  TGI: > 100 µM
KM12 colon
  TGI: > 100 µM
PC-3 prostate
  TGI: > 100 µM
786-0 renal
  TGI: > 100 µM
SF-295 CNS
  TGI: > 100 µM
SF-268 CNS
  TGI: > 100 µM
K-562 leukemia
  TGI: > 100 µM
COLO 205 colon
  TGI: > 100 µM
HT29 colon
  TGI: > 100 µM
HCC-2998 colon
  TGI: > 100 µM
MDA-MB-231 breast
  TGI: > 100 µM
NCI-H522 lung
  TGI: > 100 µM
MOLT-4 leukemia
  TGI: > 100 µM
SR leukemia
  TGI: > 100 µM
HCT-116 colon
  TGI: > 100 µM
SN12C renal
  TGI: > 100 µM
OVCAR-3 ovarian
  TGI: > 100 µM
NCI-H23 lung
  TGI: > 100 µM
NCI-H226 lung
  TGI: > 100 µM
SK-MEL-2 melanoma
  TGI: > 100 µM
OVCAR-8 ovarian
  TGI: > 100 µM
SK-OV-3 ovarian
  TGI: > 100 µM
T-47D breast
  TGI: > 100 µM
UO-31 renal
  TGI: > 100 µM
LOX IMVI melanoma
  TGI: > 100 µM
SK-MEL-5 melanoma
  TGI: > 100 µM
MDA-MB-435
  TGI: > 100 µM

## CC(C)(C)[Si](C)(C)OCC#C[C@@]1(O)CCCCC1CC(Sc1ccccc1)Sc1ccccc1 (stereo partly drawn)
ACHN renal
  TGI: 27.4 µM
RXF 393 renal
  TGI: 27.1 µM
TK-10 renal
  TGI: 31.8 µM
A498 renal
  TGI: 30.4 µM
CCRF-CEM leukemia
  TGI: 39.5 µM
IGROV1 ovarian
  TGI: 33.3 µM
HOP-92 NSCLC
  TGI: 37.4 µM
MALME-3M melanoma
  TGI: 32.3 µM
SW-620 colon
  TGI: 31.7 µM
DU-145 prostate
  TGI: 29.8 µM
SNB-19 CNS
  TGI: 28.7 µM
HCT-15 colon
  TGI: 34.5 µM
MCF7 breast
  TGI: 24.7 µM
MDA-N
  TGI: 37.7 µM
U251 CNS
  TGI: 26.1 µM
OVCAR-4 ovarian
  TGI: 29.2 µM
RPMI-8226 leukemia
  TGI: 73.3 µM
BT-549 breast
  TGI: 36.3 µM
NCI-H460 lung
  TGI: 34.6 µM
HOP-62 NSCLC
  TGI: 31.4 µM
NCI/ADR-RES ovarian
  TGI: 39 µM
UACC-257 melanoma
  TGI: 29.5 µM
SNB-75 CNS
  TGI: 28.7 µM
CAKI-1 renal
  TGI: 23.2 µM
A549 NSCLC
  TGI: 28 µM
UACC-62 melanoma
  TGI: 26.7 µM
OVCAR-5 ovarian
  TGI: 27.2 µM
M14 melanoma
  TGI: 35.5 µM
EKVX NSCLC
  TGI: 30 µM
KM12 colon
  TGI: 63.8 µM
PC-3 prostate
  TGI: 26.3 µM
786-0 renal
  TGI: 26.4 µM
SF-295 CNS
  TGI: 28.2 µM
SK-MEL-28 melanoma
  TGI: 31.3 µM
K-562 leukemia
  TGI: > 100 µM
COLO 205 colon
  TGI: 31.6 µM
HT29 colon
  TGI: 27 µM
HCC-2998 colon
  TGI: 30.7 µM
MDA-MB-231 breast
  TGI: 34.7 µM
NCI-H522 lung
  TGI: 26.8 µM
MOLT-4 leukemia
  TGI: 51 µM
SR leukemia
  TGI: 57.4 µM
HCT-116 colon
  TGI: 24 µM
SN12C renal
  TGI: 23.8 µM
OVCAR-3 ovarian
  TGI: 26.4 µM
NCI-H23 lung
  TGI: 36.1 µM
NCI-H226 lung
  TGI: 34.8 µM
SK-MEL-2 melanoma
  TGI: 31.7 µM
OVCAR-8 ovarian
  TGI: 35.1 µM
SK-OV-3 ovarian
  TGI: 34.4 µM
T-47D breast
  TGI: 25.5 µM
UO-31 renal
  TGI: 26.9 µM
LOX IMVI melanoma
  TGI: 34.5 µM
HL-60(TB) leukemia
  TGI: 41.9 µM
SK-MEL-5 melanoma
  TGI: 29.2 µM
MDA-MB-435
  TGI: 31.4 µM

## Cc1cc(C)c(NS(=O)c2cccc(Cl)c2)c(C)c1 (stereo not drawn)
ACHN renal
  TGI: > 100 µM
RXF 393 renal
  TGI: > 100 µM
TK-10 renal
  TGI: > 100 µM
SF-539 CNS
  TGI: > 100 µM
A498 renal
  TGI: > 100 µM
CCRF-CEM leukemia
  TGI: > 100 µM
HOP-92 NSCLC
  TGI: > 100 µM
MALME-3M melanoma
  TGI: > 100 µM
SW-620 colon
  TGI: > 100 µM
DU-145 prostate
  TGI: > 100 µM
SNB-19 CNS
  TGI: > 100 µM
HCT-15 colon
  TGI: > 100 µM
MCF7 breast
  TGI: > 100 µM
MDA-N
  TGI: > 100 µM
U251 CNS
  TGI: > 100 µM
RPMI-8226 leukemia
  TGI: > 100 µM
BT-549 breast
  TGI: > 100 µM
NCI-H460 lung
  TGI: > 100 µM
HOP-62 NSCLC
  TGI: > 100 µM
NCI/ADR-RES ovarian
  TGI: > 100 µM
UACC-257 melanoma
  TGI: > 100 µM
A549 NSCLC
  TGI: > 100 µM
OVCAR-5 ovarian
  TGI: > 100 µM
M14 melanoma
  TGI: > 100 µM
EKVX NSCLC
  TGI: > 100 µM
KM12 colon
  TGI: > 100 µM
PC-3 prostate
  TGI: > 100 µM
786-0 renal
  TGI: > 100 µM
SF-295 CNS
  TGI: > 100 µM
SF-268 CNS
  TGI: > 100 µM
SK-MEL-28 melanoma
  TGI: > 100 µM
K-562 leukemia
  TGI: > 100 µM
COLO 205 colon
  TGI: > 100 µM
HT29 colon
  TGI: > 100 µM
MOLT-4 leukemia
  TGI: > 100 µM
SR leukemia
  TGI: > 100 µM
HCT-116 colon
  TGI: > 100 µM
SN12C renal
  TGI: > 100 µM
OVCAR-3 ovarian
  TGI: > 100 µM
NCI-H23 lung
  TGI: > 100 µM
NCI-H226 lung
  TGI: > 100 µM
OVCAR-8 ovarian
  TGI: > 100 µM
UO-31 renal
  TGI: > 100 µM
HL-60(TB) leukemia
  TGI: > 100 µM
MDA-MB-435
  TGI: > 100 µM

## CC1OC(OC2C(O[C@@H]3C[C@@H]4CC[C@@H]5[C@H](CC[C@]6(C)C7C(C[C@@H]56)O[C@]5(CC[C@@H](C)CO5)[C@H]7C)[C@@]4(C)C[C@H]3O)OC(CO)C(O)C2O)C(O)C(O)C1O (stereo partly drawn)
RXF 393 renal
  TGI: 3.65 µM
TK-10 renal
  TGI: 3.06 µM
SF-539 CNS
  TGI: 3.02 µM
A498 renal
  TGI: 5.29 µM
CCRF-CEM leukemia
  TGI: 3.52 µM
HOP-92 NSCLC
  TGI: 6.25 µM
MALME-3M melanoma
  TGI: 3.15 µM
DU-145 prostate
  TGI: 3.13 µM
SNB-19 CNS
  TGI: 33 µM
HCT-15 colon
  TGI: 3.27 µM
MDA-N
  TGI: 13.6 µM
OVCAR-4 ovarian
  TGI: 3.28 µM
RPMI-8226 leukemia
  TGI: 4.9 µM
BT-549 breast
  TGI: 4.15 µM
UACC-257 melanoma
  TGI: 3.35 µM
CAKI-1 renal
  TGI: 3.22 µM
UACC-62 melanoma
  TGI: 3.16 µM
OVCAR-5 ovarian
  TGI: 2.85 µM
SF-295 CNS
  TGI: 3.2 µM
HS 578T breast
  TGI: 5.26 µM
SF-268 CNS
  TGI: 3.5 µM
SK-MEL-28 melanoma
  TGI: 3.43 µM
K-562 leukemia
  TGI: 5.94 µM
COLO 205 colon
  TGI: 3.41 µM
HCC-2998 colon
  TGI: 3.21 µM
MDA-MB-231 breast
  TGI: 3.19 µM
SR leukemia
  TGI: 5.24 µM
OVCAR-3 ovarian
  TGI: 3.02 µM
NCI-H23 lung
  TGI: 3.14 µM
NCI-H226 lung
  TGI: 6.08 µM
T-47D breast
  TGI: 3.7 µM
LOX IMVI melanoma
  TGI: 3.29 µM
HL-60(TB) leukemia
  TGI: 4.48 µM
SK-MEL-5 melanoma
  TGI: 4.22 µM
MDA-MB-435
  TGI: 2.86 µM
